In patent US20250002450A1, “CATIONIC STEROID COMPOUNDS, METHOD OF OBTAINING THEREOF, FORMULATIONS COMPRISING THEREOF AND THEIR USES” (UNIVERSIDADE DO PORTO, priority 2021, published 2025):
Values after ≈ are worked out from the molar mass of the structure shown. Like-named read-outs stand apart in the source and are kept apart here.

What was measured:
Experiment in all cases: Antifungal MIC/MLC (broth microdilution)
C. glabrata DSY562 = type: cell-based
Protocol: (§1) The antifungal activity of compound 1 was evaluated for a wide range of fungal species, covering yeasts and filamentous fungi, including dermatophytes. […] This antimicrobial effect was fungicidal, with minimal lethal concentrations (MLC) being equal to, or one or two-fold higher than the respective MIC. Twenty-three fungal strains were used in this study, including reference strains and clinical isolates of yeasts and filamentous fungi. Yeast strains included reference strains (ATCC—American Type Culture Collection and CECT—Colección Española de Cultivos Tipo) and clinical isolates: C. albicans ATCC 10231, Candida krusei ATCC 6258, C. albicans H37, C. albicans FF172, C. albicans FF176, C. albicans DSY294, C. albicans DSY296, C. glabrata DSY562, C. glabrata DSY565 and Cryptococcus neoformans CECT 1078. Filamentous fungi included Aspergillus fumigatus ATCC 240305, A. fumigatus C111, A. niger ATCC 16404, A. flavus F44, Fusarium solani FF125, F. oxysporum FF115, and dermatophytes Trichophyton rubrum FF5, T. mentagrophytes FF7, Microscoporum canis FF1 and Nannizzia gypsea FF3 (formerly Microsporum gypseum) and a species of genera Mucor, Lichetheimia and Scedosporium. Saprolegnia parasitica CBS 223.65, a reference strain of an oomycete fish pathogen, was also included. All microorganisms were kept in Sabouraud Dextrose Broth (SDB: BioMérieux, Marcy L'Etoile, France) plus glycerol (20%) at −80° C. The strains were kept in Sabouraud Dextrose Agar (SDA: BioMérieux, Marcy L'Etoile, France) slants and were sub-cultured in SDA before each test. S. parasitica was kept in Corn Meal Agar plates (CMA: BBL™ Corn Meal Agar, BD, Le Pont-de-Claix, France) and was sub-cultured in CMA before each experiment. C. albicans H37, was kindly provided by Cidilia Pina Vaz (CHSJ, Porto, Portugal) and C. albicans DSY294, C. albicans DSY296, C. glabrata DSY562, C. glabrata DSY565 were kindly provided by D. Sanglard (University of Lausanne, Switzerland). A stock solution of compound 1 (10 mg/mL), was prepared in dimethyl sulfoxide (DMSO 99%: Alfa Aesar, Kandel, Germany), kept at −20 degrees C., and freshly diluted in the appropriate culture media before each assay. In all experiments, in-test concentrations of DMSO were kept below 2%. Fluconazole (Alfa Aesar, Ward Hill, MA, USA) was tested as commercial antifungal.
(§2) Antifungal activity was evaluated by determining the MIC of compound 1 by the broth microdilution method, according to CLSI guidelines (reference documents M27-A3 for yeasts and M38-A2 for filamentous fungi). Briefly, cell or spore suspensions were prepared in RPMI-1640 broth medium (Biochrom, Berlin, Germany) buffered with 3-(N-morpholino)propane sulfonic acid (MOPS) (Sigma-Aldrich, St. Louis, MO, USA) (henceforth referred to as RPMI) from fresh cultures of the different strains of fungi. For yeasts, the inoculum was adjusted to 0.5-2.5×10^3 CFU/mL. For filamentous fungi, the inoculum was adjusted to 1-3×10^3 CFU/mL for dermatophytes, and 0.4-5×10^4 CFU/mL for all other strains. […] Sterility and growth controls were included in each assay. The 96-well flat-bottomed untreated polystyrene microtiter plates which were incubated for 48 h at 35° C., with the exception of Lichetheimia spp. which was incubated at 25° C. for 48 h, and the dermatophyte strains, which incubated for 5-7 days at 25° C. […] Voriconazole (kindly provided by Pfizer Ldt., UK) MIC for C. krusei ATCC 6258 was used as quality control and the assays were validated when the results obtained were within the recommended limits. The minimal lethal concentration (MLC) was determined by spreading 20 μL of culture collected from wells showing no visible growth on SDA plates. The MLC was determined as the lowest concentration showing complete growth inhibition after 48 h at 35 degrees C., 48 h at 25 degrees C. (Lichetheimia spp.) or 5-7 days at 25 degrees C. (dermatophytes). At least two independent assays were performed for all tested strains.

Lichtheimia spp. = type: cell-based
Protocol: as §1, §2

T. mentagrophytes FF7 = type: cell-based
Protocol: as §1, §2

Fusarium oxysporum FF115 = type: cell-based
Protocol: as §1, §2

Mucor spp. = type: cell-based
Protocol: as §1, §2

Scedosporium spp. = type: cell-based
Protocol: as §1, §2

[1] = test system: Cryptococcus neoformans CECT 1078; type: cell-based
Protocol: as §1, §2

C. glabrata DSY565 = type: cell-based
Protocol: as §1, §2

Fusarium solani FF125 = type: cell-based
Protocol: as §1, §2

A. niger ATCC 16404 = type: cell-based
Protocol: as §1, §2

A. flavus F44 = type: cell-based
Protocol: as §1, §2

[2] = test system: Aspergillus fumigatus ATCC 204305; type: cell-based
Protocol: as §1, §2

A. fumigatus C111 = type: cell-based, Aspergillus fumigatus; conditions: A. fumigatus C111, resistant to azoles
Protocol: as §1
Antifungal activity was evaluated by determining the MIC of compound 1 by the broth microdilution method, according to CLSI guidelines (reference documents M27-A3 for yeasts and M38-A2 for filamentous fungi). […] The minimal lethal concentration (MLC) was determined by spreading 20 μL of culture collected from wells showing no visible growth on SDA plates. The MLC was determined as the lowest concentration showing complete growth inhibition after 48 h at 35 degrees C., 48 h at 25 degrees C. […]

[3] = Lichtheimia spp., intrinsically resistant to fluconazole
[4] = Fusarium oxysporum FF115, intrinsically resistant to fluconazole
[5] = Mucor spp., intrinsically resistant to fluconazole
[6] = C. glabrata DSY565, resistant to fluconazole or azoles
[7] = Fusarium solani FF125, intrinsically resistant to fluconazole
[8] = A. niger ATCC 16404, intrinsically resistant to fluconazole
[9] = A. flavus F44, intrinsically resistant to fluconazole
[10] = Aspergillus fumigatus ATCC 204305, intrinsically resistant to fluconazole

Compound	MLC (C. glabrata DSY562)	MLC (Lichtheimia spp.; [3])	MLC (T. mentagrophytes FF7)	MLC (Fusarium oxysporum FF115; [4])	MLC (Mucor spp.; [5])	MLC (Scedosporium spp.)	MLC [1]	MLC (C. glabrata DSY565; [6])	MLC (Fusarium solani FF125; [7])	MLC (A. niger ATCC 16404; [8])	MLC (A. flavus F44; [9])	MLC [2, 10]	MLC (A. fumigatus C111)	also measured
C[C@H](CCC(=O)NCCN)[C@H]1CC[C@H]2[C@@H]3CC[C@@H]4C[C@H](O)CC[C@]4(C)[C@H]3C[C@H](O)[C@]12C [Compound 1, (R)—N-(2-aminoethyl)-4-((3R,5R,8R,9S,10S,12S,13R,14S,17R)-3,12-dihydroxy-10,13-dimethylhexadecahydro-1H-cyclopenta[a]phenanthren-17-yl) pentanamida]	64 µg/mL (≈ 147 µM)	>128 µg/mL	64 µg/mL (≈ 147 µM)	≥128 µg/mL	64 µg/mL (≈ 147 µM)	128 µg/mL (≈ 294 µM)	64 µg/mL (≈ 147 µM)	64 µg/mL (≈ 147 µM)	>128 µg/mL	128 µg/mL (≈ 294 µM)	>128 µg/mL	≥128 µg/mL	>128 µg/mL	MIC (C. glabrata DSY562): 64 µg/mL (≈ 147 µM); MIC (Lichtheimia spp.; [3]): 64 µg/mL (≈ 147 µM); MIC (T. mentagrophytes FF7): 32 µg/mL (≈ 73.6 µM); MIC (Fusarium oxysporum FF115; [4]): 128 µg/mL (≈ 294 µM); MIC (Mucor spp.; [5]): 64 µg/mL (≈ 147 µM); MIC (Scedosporium spp.): 64 µg/mL (≈ 147 µM); MIC [1]: 32 µg/mL (≈ 73.6 µM); MIC (C. glabrata DSY565; [6]): 64 µg/mL (≈ 147 µM); MIC (Fusarium solani FF125; [7]): 64 µg/mL (≈ 147 µM); MIC (A. niger ATCC 16404; [8]): 64 µg/mL (≈ 147 µM); MIC (A. flavus F44; [9]): ≥128 µg/mL; MIC [2, 10]: 128 µg/mL (≈ 294 µM); MIC (A. fumigatus C111): 128 µg/mL (≈ 294 µM)
OC(Cn1cncn1)(Cn1cncn1)c1ccc(F)cc1F [Fluconazole, reference compound]	>128 µg/mL	>128 µg/mL	32 µg/mL (≈ 104 µM)	>128 µg/mL	>128 µg/mL	16 µg/mL (≈ 52.2 µM)	>32 µg/mL	>128 µg/mL	>128 µg/mL	>128 µg/mL	>128 µg/mL	>128 µg/mL	>128 µg/mL	MIC (C. glabrata DSY562; Nakaseomyces glabratus, read-out: MIC): 4 µg/mL (≈ 13.1 µM); MIC (Lichtheimia spp.; Lichtheimia, read-out: MIC): 64 µg/mL (≈ 209 µM); MIC (T. mentagrophytes FF7; Trichophyton mentagrophytes, read-out: MIC): 8 µg/mL (≈ 26.1 µM); MIC (Fusarium oxysporum FF115; Fusarium oxysporum, FF115, read-out: MIC): 64 µg/mL (≈ 209 µM); MIC (Mucor spp.; Mucor, read-out: MIC): > 128 µg/mL; MIC (Scedosporium spp.; read-out: MIC): 4 µg/mL (≈ 13.1 µM); MIC ([1]; CECT1078, read-out: MIC): 8 µg/mL (≈ 26.1 µM); MIC (C. glabrata DSY565; Nakaseomyces glabratus, DSY565): 128 µg/mL (≈ 418 µM); MIC (Fusarium solani FF125; Fusarium solani, FF125, read-out: MIC): ≥ 128 µg/mL; MIC (A. niger ATCC 16404; Aspergillus niger, ATCC16404, read-out: MIC): ≥ 128 µg/mL; MIC (A. flavus F44; Aspergillus flavus, F44, read-out: MIC): 128 µg/mL (≈ 418 µM); MIC ([2]; Aspergillus fumigatus, ATCC204305, read-out: MIC): ≥ 128 µg/mL; MIC (A. fumigatus C111; Aspergillus fumigatus, read-out: MIC): ≥ 128 µg/mL
